Data set [1] is described as follows: Solubility tests in organic solvents. The class given is physicochemical. The conditions noted are these: for solubilities toward chlorobenzene and toluene: result in words.
A short description of data set [2]: HOMO and LUMO measurement (cyclic voltammetry and optical energy gap). The class given is physicochemical. Conditions: for HOMO: estimated from the LUMO level and the optical energy gap (UV-visible absorption onset); for LUMO: from peak potential of 1st reduction wave, cyclic voltammetry in anhydrous tetrahydrofuran, ferrocene internal standard. The procedure: The LUMO (lowest unoccupied molecular orbital) levels are estimated from cyclic voltammetry. Voltammetric measurements are performed using a PC-controlled Autolab PGSTAT128N electrochemical workstation coupled with a 663 VA Stand measure unit. Cyclic voltammograms are recorded at room temperature under an argon atmosphere in anhydrous tetrahydrofuran using 0.1 M tetrabutylammonium hexafluorophosphate (Fluka electrochemical grade) as supporting electrolyte. The working electrode is a glassy carbon disk and the counter electrode is a platinum wire or a glassy carbon rod. A silver/silver chloride electrode filled with a methanolic saturated KCl solution or a platinum wire pseudo-reference has been used as reference electrode. The sample solutions (0.5 mM) are outgassed with argon for 10 minutes before measurement. Measurements are performed with a sweep rate fixed to 0.1 V/s. Ferrocene is used as internal standard.
The LUMO level is estimated from the peak potential of the 1st observed reduction wave (E1 reduct.) using the following equation: ELUMO -(-4.8) = -[E1 reduct-EOX ½(Fc/(Fc)^+)] [formula] where EHOMO (ferrocene) has been taken equal to -4.8 eV below the vacuum level and EOX ½ (Fc/Fc^+) corresponds to the half-wave oxidation potential of the ferrocene internal standard.
The HOMO level could not be estimated directly from CV measurements because the 1st oxidation wave lies beyond the stability window of the two tested solvents (tetrahydrofuran and dichloromethane). The HOMO level is thus estimated from the LUMO level and optical energy gap (Eopt g): EHOMO = ELUMO -Eopt g , [formula] the optical energy gap being determined from the absorption onset in the UV-visible absorption spectrum.

SMILES strings stand for the structures. Read-outs that look alike come from different tables or passages of the source.

`CC(C)(C)c1ccc(-c2nnc(-c3cc(-c4nnc(-c5ccc(C(C)(C)C)cc5)o4)cc(C(C)(C)C)c3)o2)cc1` [tBu-OXD7]: the “solubilities toward chlorobenzene and toluene” value in data set [1] is “good solubilities”. In data set [1] (solvent chlorobenzene), this compound had a Solubility in chlorobenzene greater than 7.2 wt%. Moreover, the Solubility in toluene in data set [1] (solvent toluene) is listed as greater than 5 wt%. In data set [2], the HOMO is reported as -6.0 eV and the LUMO is -2.3 eV.

With `CC(C)(C)c1ccc(-c2nnc(-c3cccc(-c4nnc(-c5ccc(C(C)(C)C)cc5)o4)c3)o2)cc1` [OXD7, reference compound], in data set [1], the Solubility in chlorobenzene is given as less than 1.5 wt%, the Solubility in toluene result is recorded as “Not soluble” and the “solubility for most organic solvents” value is “lacks solubility”. Further, in data set [2], the HOMO was -6.0 eV and the LUMO is -2.3 eV.

Regarding `CC(C)(C)c1ccc(-c2nnc(-c3cc(-c4nnc(-c5ccc(C(C)(C)C)cc5)o4)cc(C(F)(F)C(F)(F)C(F)(F)C(F)(F)C(F)(F)C(F)(F)F)c3)o2)cc1` [Formula C6F13-OXD7], the “solubilities toward chlorobenzene and toluene” value in data set [1] is recorded as “good solubilities”. The Solubility in chlorobenzene in data set [1] (solvent chlorobenzene) is greater than 4.5 wt%. Moreover, the Solubility in toluene in data set [1] (solvent toluene) is recorded as 2.5 wt%. Further, in data set [2], the HOMO is listed as -6.1 eV and the LUMO is on record as -2.5 eV.

The values above are taken from EP2282358A1, “Host material for light-emitting devices” (Solvay SA, priority 2009, dated 2011).
